From patent US10167262B2, “Herbicidal substituted 3-arylpyrazoles” (FMC CORPORATION, priority 2014, dated 2019)

Tests used:
Format in all cases: in vivo
[1] = tested on: waterhemp (common waterhemp, Amaranthus rudis); test: Test C pre-/postemergence greenhouse test, plant response rating 0-100; settings: Preemergence
Outline: (§1)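 Plants were scored visually against controls 13–15 days after treatment on a 0–100 scale, 100 meaning complete control. Test chemicals, formulated in surfactant-containing non-phytotoxic solvent, went preemergence onto seeds in loam–sand blend or postemergence onto 1- to 4-leaf plants (2–18 cm) grown in peat-based mix.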

[2] = tested on: barnyardgrass (Echinochloa crus-galli); test: as above; settings: Preemergence
Outline: as §1

[3] = tested on: oilseed rape (Brassica napus); test: as above; settings: Preemergence
Outline: as §1

soybean (Glycine max) = test: Test E pre-/postemergence greenhouse test, plant response rating 0-100; settings: scale 0 to 100; for Soybean plant response rating: Preemergence
Outline: (§2)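 Rated visually against controls 14-21 days after treatment on a 0-100 scale (100 = complete control). Pre- and postemergence sprays used a non-phytotoxic solvent mixture with surfactant. Preemergence seeds were in silt loam; postemergence plants were in peat-based medium at the 1- to 4-leaf stage (2-18 cm).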

[4] = tested on: sandbur (southern sandbur, Cenchrus echinatus); test: as above; settings: Cenchrus echinatus, post-emergence, Postemergence, scale 0 to 100
Outline: as §2

[5] = tested on: barnyardgrass (Echinochloa crus-galli); test: as above; settings: Echinochloa crus-galli, post-emergence, Postemergence, scale 0 to 100
Outline: as §2

[6] = tested on: woolly cupgrass (Eriochloa villosa); test: Test C postemergence greenhouse test, plant response rating 0-100
Outline: (§3)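 Formulated compounds applied postemergence; plants 1- to 4-leaf stage. Evaluated visually vs. untreated controls after roughly two weeks (13–15 d) under greenhouse conditions; 100 denotes complete control.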

[7] = tested on: cocklebur (common cocklebur, Xanthium strumarium); test: as above
Outline: as §3

[8] = tested on: goosegrass (Eleusine indica); test: as above
Outline: as §3

[9] = tested on: canarygrass (Phalaris minor); test: as above
Outline: as §3

[10] = tested on: deadnettle (henbit deadnettle, Lamium amplexicaule); test: as above
Outline: as §3

Cn1cc(C(=O)c2ccccc2)c(-c2cc(Cl)cc(Cl)c2)n1 [Compound 54, [3-(3,5-dichlorophenyl)-1-methyl-1H-pyrazol-4-yl]phenylmethanone]
Plant response rating, Waterhemp ([1]; 62 g ai/ha): 90
Plant response rating, Waterhemp ([1]; 125 g ai/ha): 95
Plant response rating, Waterhemp ([1]; 250 g ai/ha): 98
Plant response rating, Waterhemp ([1]; 500 g ai/ha): 100
Plant response rating, Barnyardgrass ([2]; 62 g ai/ha): 0
Plant response rating, Barnyardgrass ([2]; 125 g ai/ha): 0
Plant response rating, Barnyardgrass ([2]; 250 g ai/ha): 0
Plant response rating, Barnyardgrass ([2]; 500 g ai/ha): 0
Plant response rating, Oilseed Rape ([3]; 62 g ai/ha): 0
Plant response rating, Oilseed Rape ([3]; 125 g ai/ha): 0
Plant response rating, Oilseed Rape ([3]; 250 g ai/ha): 0
Plant response rating, Oilseed Rape ([3]; 500 g ai/ha): 5
plant injury at 31 g/ha (soybean (Glycine max); Glycine max, post-emergence, Postemergence, 31 g ai/ha): 0%
plant injury at 62 g/ha (soybean (Glycine max); Glycine max, post-emergence, Postemergence, 62 g ai/ha): 0%
plant injury at 125 g/ha (soybean (Glycine max); Glycine max, post-emergence, Postemergence, 125 g ai/ha): 0%
plant injury at 250 g/ha (soybean (Glycine max); Glycine max, post-emergence, Postemergence, 250 g ai/ha): 0%
Soybean plant response rating (soybean (Glycine max); 125 g ai/ha): 0
Soybean plant response rating (soybean (Glycine max); 250 g ai/ha): 12
pest or weed control at 31 g/ha ([4]; 31 g ai/ha): 0%
pest or weed control at 62 g/ha ([4]; 62 g ai/ha): 0%
pest or weed control at 125 g/ha ([4]; 125 g ai/ha): 0%
pest or weed control at 250 g/ha ([4]; 250 g ai/ha): 0%
pest or weed control at 16 g/ha ([5]; 16 g ai/ha): 0%
pest or weed control at 31 g/ha ([5]; 31 g ai/ha): 0%
pest or weed control at 62 g/ha ([5]; 62 g ai/ha): 0%
pest or weed control at 125 g/ha ([5]; 125 g ai/ha): 0%
pest or weed control at 250 g/ha ([5]; 250 g ai/ha): 0%
Plant response rating (0 to 100), Cupgrass, Woolly ([6]; 31 g ai/ha): 0
Plant response rating (0 to 100), Cupgrass, Woolly ([6]; 62 g ai/ha): 0
Plant response rating (0 to 100), Cupgrass, Woolly ([6]; 125 g ai/ha): 0
Plant response rating, Cupgrass, Woolly ([6]; 250 g ai/ha, scale 0 to 100): 0
Plant response rating (0 to 100), Cocklebur ([7]; 31 g ai/ha): 0
Plant response rating (0 to 100), Cocklebur ([7]; 62 g ai/ha): 0
Plant response rating (0 to 100), Cocklebur ([7]; 125 g ai/ha): 0
Plant response rating, Cocklebur ([7]; 250 g ai/ha, scale 0 to 100): 0
Plant response rating (0 to 100), Goosegrass ([8]; 31 g ai/ha): 0
Plant response rating (0 to 100), Goosegrass ([8]; 62 g ai/ha): 0
Plant response rating (0 to 100), Goosegrass ([8]; 125 g ai/ha): 0
Plant response rating, Goosegrass ([8]; 250 g ai/ha, scale 0 to 100): 0
Plant response rating (0 to 100), Canarygrass ([9]; 31 g ai/ha): 0
Plant response rating (0 to 100), Canarygrass ([9]; 62 g ai/ha): 0
Plant response rating (0 to 100), Canarygrass ([9]; 125 g ai/ha): 0
Plant response rating, Canarygrass ([9]; 250 g ai/ha, scale 0 to 100): 0
Plant response rating (0 to 100), Deadnettle ([10]; 31 g ai/ha): 0
Plant response rating (0 to 100), Deadnettle ([10]; 62 g ai/ha): 0
Plant response rating (0 to 100), Deadnettle ([10]; 125 g ai/ha): 0
Plant response rating, Deadnettle ([10]; 250 g ai/ha, scale 0 to 100): 5
